Converted amounts (≈) assume the structure as drawn. “Also recorded” adds a separate entry of the source. Read-outs that look alike come from different tables or passages of the source. Marks after values point to notes of the source that are not given here.
Experiments:
[1] = system: human peripheral blood lymphocytes (HPBL); assay: in vitro chromosome aberration assay; format: cell-based
CYP2C19 = CYP2C19 (Homo sapiens, UniProt P33261); assay: incubations with recombinant enzymes; format: in vitro ADME
[2] = previously conducted solubility studies; format: physicochemical
Procedure: Rabeprazole, a strong PPI, suppresses the secretion of gastric acid by noncompetitive blockade of H+/K+-adenosine triphosphatase at the secretory surface of gastric parietal cells, thereby raising the intra-gastric pH above 3.0. The recommended starting dose of sodium rabeprazole for subjects with GI ulcers and GERD is 20 mg per day and for subjects with hypersecretory syndromes is 60 mg per day (Accord-UK Ltd. Summary of Product Characteristics: Rabeprazole 20 mg Gastro-resistant Tablets, available at www.medicines.org.uk/emc/medicine/27143/SPC/Rabeprazole+20 mg+Gastro-resistant+Tablets/. Updated 16 Apr. 2020. Accessed 12 Aug. 2021).

rat bone marrow = assay: in vivo rat bone marrow micronucleus assay
UGT1A9 = UGT1A9 (Homo sapiens, UniProt O60656); assay: enzyme inhibition, in vitro; format: in vitro ADME
[3] = system: bacterial mutagenicity (Ames); assay: in vitro bacterial mutagenicity (Ames) assay; format: cell-based
BCRP = BCRP (Homo sapiens, UniProt Q9UNQ0); assay: transporter inhibition, in vitro; format: in vitro ADME; conditions: at clinically relevant concentrations
[4] = pharmacokinetics in healthy subjects (label); format: in vivo, human
[5] = phase I two-part drug-drug interaction study, plasma pharmacokinetics (Example 1); format: in vivo, human; conditions: for Cmax / Tmax / AUC from 0 to 24 h / AUC(0-inf) / AUC(0-t) / half-life: male, human, plasma, oral; for Tmax: read-out: Tmax, median (range)
Description: The secondary objective was to provide additional information on the safety and tolerability of this dose regimen in healthy males.
This was a single center, non-randomized, DDI study in 35 (Part 1) and 38 (Part 2) healthy males. The key inclusion criterion was males aged 18 to 55 years (inclusive). […] In Part 2, co-administration with omeprazole was studied. The study design is illustrated in FIG. 1.
At least a 2-to 8-day washout occurred between each period to account for a minimum of 5 half-lives of the active moieties dosed in the preceding period.
Blood samples were collected into 6 mL K,EDTA tubes and were processed within 30 minutes of collection. The resultant plasma was then frozen within 90 minutes of collection and stored at […] until shipment to the bioanalytical laboratory.
For each comparison, PK parameters were natural log transformed and analyzed using mixed effect modeling with treatment included as a fixed effect and subject as a random effect. Adjusted geometric mean ratios (GMRs) and corresponding 90% CIs were calculated.

[6] = single oral dose of radiolabeled belumosudil
[7] = 200 mg belumosudil single dose + itraconazole
[8] = 200 mg belumosudil single dose + rabeprazole
[9] = 200 mg belumosudil single dose + rifampicin
[10] = 200 mg belumosudil single dose alone
[11] = coadministration of rabeprazole

Sequence of CYP2C19 (P33261 whole entry): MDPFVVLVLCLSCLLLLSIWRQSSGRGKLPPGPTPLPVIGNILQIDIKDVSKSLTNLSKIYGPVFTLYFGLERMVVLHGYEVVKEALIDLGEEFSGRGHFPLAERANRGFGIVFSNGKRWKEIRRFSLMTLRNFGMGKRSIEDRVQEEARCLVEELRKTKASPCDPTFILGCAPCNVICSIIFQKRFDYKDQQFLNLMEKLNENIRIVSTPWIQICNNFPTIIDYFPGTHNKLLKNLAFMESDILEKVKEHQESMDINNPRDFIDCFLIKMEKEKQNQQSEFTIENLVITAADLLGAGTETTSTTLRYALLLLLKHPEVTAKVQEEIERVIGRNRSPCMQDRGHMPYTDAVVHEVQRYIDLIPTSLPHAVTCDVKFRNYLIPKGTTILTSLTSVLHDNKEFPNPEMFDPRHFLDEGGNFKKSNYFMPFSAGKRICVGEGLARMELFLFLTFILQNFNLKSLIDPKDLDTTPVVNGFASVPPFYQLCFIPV
Sequence of BCRP (Q9UNQ0 whole entry): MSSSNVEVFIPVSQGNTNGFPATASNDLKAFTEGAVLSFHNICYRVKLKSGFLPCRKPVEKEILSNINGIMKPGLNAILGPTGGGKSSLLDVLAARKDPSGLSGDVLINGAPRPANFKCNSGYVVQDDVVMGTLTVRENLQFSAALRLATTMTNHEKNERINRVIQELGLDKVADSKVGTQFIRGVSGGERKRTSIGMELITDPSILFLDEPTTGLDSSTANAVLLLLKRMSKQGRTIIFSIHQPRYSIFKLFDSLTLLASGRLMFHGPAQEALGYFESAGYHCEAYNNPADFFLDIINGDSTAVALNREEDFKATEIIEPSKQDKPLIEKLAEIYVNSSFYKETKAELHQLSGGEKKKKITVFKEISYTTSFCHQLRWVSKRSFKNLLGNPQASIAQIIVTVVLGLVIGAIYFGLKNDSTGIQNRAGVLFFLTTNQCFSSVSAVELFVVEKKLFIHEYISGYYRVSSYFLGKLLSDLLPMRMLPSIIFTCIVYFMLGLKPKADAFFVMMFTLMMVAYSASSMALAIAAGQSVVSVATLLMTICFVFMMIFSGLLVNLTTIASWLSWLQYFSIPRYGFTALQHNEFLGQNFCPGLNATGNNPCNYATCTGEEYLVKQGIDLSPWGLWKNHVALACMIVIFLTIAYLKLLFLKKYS
Sequence of UGT1A9 (O60656 26-530): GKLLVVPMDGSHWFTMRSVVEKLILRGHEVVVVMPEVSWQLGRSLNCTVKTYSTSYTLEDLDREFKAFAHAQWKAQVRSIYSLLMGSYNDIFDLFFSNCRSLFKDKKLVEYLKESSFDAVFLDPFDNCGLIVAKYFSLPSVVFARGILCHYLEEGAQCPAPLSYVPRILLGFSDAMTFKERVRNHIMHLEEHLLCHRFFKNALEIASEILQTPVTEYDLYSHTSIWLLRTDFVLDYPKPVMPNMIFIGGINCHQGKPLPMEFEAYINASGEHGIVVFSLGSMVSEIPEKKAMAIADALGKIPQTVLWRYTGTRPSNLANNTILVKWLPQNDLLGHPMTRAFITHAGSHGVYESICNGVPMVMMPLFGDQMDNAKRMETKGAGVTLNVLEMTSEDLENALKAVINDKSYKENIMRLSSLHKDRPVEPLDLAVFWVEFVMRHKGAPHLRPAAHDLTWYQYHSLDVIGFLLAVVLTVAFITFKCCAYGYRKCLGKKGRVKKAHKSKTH

Compound: CC(C)NC(=O)COc1cccc(-c2nc(Nc3ccc4[nH]ncc4c3)c3ccccc3n2)c1 [Belumosudil, 2-{3-[4-(1H-indazol-5-ylamino)-2-quinazolinyl]phenoxy}-N-(propan-2-yl) acetamide]
- genotoxicity [1]: not genotoxic
- share of belumosudil metabolism (CYP2C19): < 5%
- solubility ([2]; pH 2.7, aqueous buffer): > 100 µg/mL
- solubility ([2]; pH 6.5, aqueous buffer): ~4 µg/mL (≈ 8.84 µM)
- solubility ([2]; pH 7.4, aqueous buffer): ~3 µg/mL (≈ 6.63 µM)
- genotoxicity (rat bone marrow): not genotoxic
- UGT1A9 inhibition (UGT1A9): inhibitor
- genotoxicity [3]: not genotoxic
- BCRP inhibition (BCRP): inhibits
- increase in AUC with high-fat and high-calorie meal vs fasted ([4]; single dose): 2 times
- increase in Cmax with high-fat and high-calorie meal vs fasted ([4]; single dose): 2.2 times
- radioactivity recovered in feces [4, 6]: 85%
- radioactivity recovered in urine [4, 6]: less than 5%
- recovered in feces as unchanged [4, 6]: 30%
- CL/F, arithmetic mean (SD) [5, 7]: 318 (117) ^b mL/min
- CL/F, geometric mean (geometric CV %) [5, 7]: 298 (38.1) ^b; mL/min
- CL/F, arithmetic mean (SD) [5, 8]: 2480 (2410) ^d mL/min
- CL/F, geometric mean (geometric CV %) [5, 8]: 1980 (65.8) ^d; mL/min
- CL/F, arithmetic mean (SD) [5, 9]: 1400 (450) ^c mL/min
- CL/F, geometric mean (geometric CV %) [5, 9]: 1330 (34.5) ^c; mL/min
- CL/F, arithmetic mean (SD) [5, 10]: 385 (116) ^a mL/min
- CL/F, geometric mean (geometric CV %) [5, 10]: 367 (33.3) ^a; mL/min
- change in belumosudil exposure ([5]; coadministration of itraconazole): no clinically meaningful effect; also recorded: No clinically relevant change
- decrease in AUC0-24 vs belumosudil alone ([5]; coadministration of omeprazole): 53%
- decrease in AUC vs belumosudil alone ([5]; coadministration of omeprazole): 47%
- decrease in Cmax (first dose) vs belumosudil alone ([5]; coadministration of omeprazole): 68%
- decrease in AUC vs belumosudil alone [5, 11]: 80%
- decrease in AUCinf vs belumosudil alone [5, 11]: ~80%
- decrease in AUClast vs belumosudil alone [5, 11]: ~82%
- decrease in AUCinf vs belumosudil alone ([5]; coadministration of rifampicin): ~72%
- decrease in AUClast vs belumosudil alone ([5]; coadministration of rifampicin): ~72%
- decrease in AUC vs belumosudil alone ([5]; coadministration of rifampin): 72%
- Cmax ([5]; 200 mg belumosudil BID + omeprazole, first dose, read-out: Cmax, arithmetic mean (SD)): 893 ng/mL
- Cmax ([5]; 200 mg belumosudil BID + omeprazole, first dose, read-out: Cmax, geometric mean (geometric CV %)): 575 ng/mL
- Tmax ([5]; 200 mg belumosudil BID + omeprazole, first dose): 4 h
- Cmax ([5]; 200 mg belumosudil BID + omeprazole, second dose, read-out: Cmax, arithmetic mean (SD)): 1050 ng/mL
- Cmax ([5]; 200 mg belumosudil BID + omeprazole, second dose, read-out: Cmax, geometric mean (geometric CV %)): 903 ng/mL
- Tmax ([5]; 200 mg belumosudil BID + omeprazole, second dose): 17 h
- AUC from 0 to 24 h ([5]; 200 mg belumosudil BID + omeprazole, read-out: AUC0-24, arithmetic mean (SD)): 9100 ng·h/mL
- AUC from 0 to 24 h ([5]; 200 mg belumosudil BID + omeprazole, read-out: AUC0-24, geometric mean (geometric CV %)): 7970 ng·h/mL
- AUC(0-inf) ([5]; 200 mg belumosudil BID + omeprazole, read-out: AUCinf, arithmetic mean (SD)): 11200 ng·h/mL
- AUC(0-inf) ([5]; 200 mg belumosudil BID + omeprazole, read-out: AUCinf, geometric mean (geometric CV %)): 9880 ng·h/mL
- AUC(0-t) ([5]; 200 mg belumosudil BID + omeprazole, read-out: AUClast, arithmetic mean (SD)): 10900 ng·h/mL
- AUC(0-t) ([5]; 200 mg belumosudil BID + omeprazole, read-out: AUClast, geometric mean (geometric CV %)): 9680 ng·h/mL
- half-life ([5]; 200 mg belumosudil BID + omeprazole, read-out: t1/2, arithmetic mean (SD) (converted)): 6.55 h
- half-life ([5]; 200 mg belumosudil BID + omeprazole, read-out: t1/2, geometric mean (geometric CV %) (converted)): 6.16 h
- AUC from 0 to 24 h ([5]; 200 mg belumosudil single dose + itraconazole, read-out: AUC0-24, arithmetic mean (SD)): 11000 ng·h/mL
- AUC from 0 to 24 h ([5]; 200 mg belumosudil single dose + itraconazole, read-out: AUC0-24, geometric mean (geometric CV %)): 10400 ng·h/mL
- AUC(0-inf) ([5]; 200 mg belumosudil single dose + itraconazole, read-out: AUCinf, arithmetic mean (SD)): 11900 ng·h/mL
- AUC(0-inf) ([5]; 200 mg belumosudil single dose + itraconazole, read-out: AUCinf, geometric mean (geometric CV %)): 11200 ng·h/mL
- AUC(0-t) ([5]; 200 mg belumosudil single dose + itraconazole, read-out: AUClast, arithmetic mean (SD)): 11600 ng·h/mL
- AUC(0-t) ([5]; 200 mg belumosudil single dose + itraconazole, read-out: AUClast, geometric mean (geometric CV %)): 10900 ng·h/mL
- Cmax ([5]; 200 mg belumosudil single dose + itraconazole, read-out: Cmax, arithmetic mean (SD)): 2230 ng/mL
- Cmax ([5]; 200 mg belumosudil single dose + itraconazole, read-out: Cmax, geometric mean (geometric CV %)): 2130 ng/mL

— US20240350493A1 (Kadmon Corporation, LLC, priority 2022, published 2024)
